The values below come from patent US6458847B1, “Method for screening for drugs useful in inhibition of polymerization of aβ and tau peptides” (University of Alabama at Birmingham Research Foundation, priority 1995, dated 2002).

The test system of series [1] is microtubule tau purified from P11 rat, adult rat. The settings on record: glutathione 1-10 mM.
Protocol: In general, tau stored at −80° C. in buffer A was thawed at 4° C., diluted into 100 mM Tris pH 7.2 containing DTT or b-mercaptoethanol (bME), and incubated at 37° C. 100 mM MES was used for experiments requiring buffering below pH 7. Final tau concentrations were in the range of 1-10 μM. […] Samples were deposited in 10 ml aliquots onto 400 mesh nickel grids coated with 0.4% formvar, rinsed with 5 drops H2O, and stained with 5 drops of 2% uranyl acetate, the last drop sitting 1 minutes prior to blotting. Grids were examined using a JEOL JEM-100CX transmission electron microscope operated at 80 kV. For filament length measurements, micrographs obtained at a nominal magnification of 15K (FIG. 6) or 10K (FIGS. 7 and 9) were digitized using a SIT68 camera (MTI), and lengths were determined using software from Universal Imaging Corporation. Only filaments contained completely within a field and measuring at least 50 nm were included in data sets. Fields selected at random were chosen at low illumination and without the aid of the 10× binoculars, so that Formvar integrity could be assessed without viewing the filaments present.
The next series deals with T1, human recombinant tau (Homo sapiens, UniProt P10636).
T1 construct: the conditions defined herein are conducive to assembly of the full length tau protein; polyhistidine tag; host or cells: E. coli
The series is described as follows: Arachidonic acid dependence of tau assembly, human recombinant tau. The class given is biochemical. The settings on record: 20-80 μM arachidonic acid, 66 hours; no spontaneous assembly. The text has this:
Sprague-Dawley rats were obtained from Charles River, Wilmington, Mass., and killed by decapitation at postnatal day 11 (juveniles) or at greater than six weeks of age (adults). Fresh porcine brains were obtained from Bryan Meat Packing, Westpoint Miss. Detailed protocols for the isolation of tau from whole brain or twice-cycled brain microtubules have been described above. Nonphosphorylated, recombinant human tau (htau40; Goedert et al., 1989) was the gift of Dr. Jeff Kuret, Northwestern University Medical School, Chicago, Ill. Recombinant tau was produced in E. coli as a fusion protein with a polyhistidine tag, and purified to near homogeneity by nickel-chelate and gel filtration chromatography (Carmel et al., 1994). Following purification tau isolates were dialyzed against buffer A (20 mM morpholinoethanesulfonic acid pH 6.8, 80 mM NaCl, 2 mM EGTA, 1 mM MgCl2, 0.1 mM EDTA) and stored at −80° C. Protein concentrations were determined using the method of Lowry (Lowry et al., 1951), after samples in Laemmli sample buffer (Laemmli, 1970) were precipitated with 10 volumes of 10% perchloric acid, 1% phosphotungstic acid. Bovine serum albumin was used as the standard. […] At 250 mM NaCl, the measured CMC of arachidonic acid in the Tris buffering system was >2 mM. […]

Series [2] relates to tau purified from porcine whole brain. The series is described as follows: Arachidonic acid dependence of tau assembly, porcine whole brain tau. The class given is biochemical. The settings on record: 20-80 μM arachidonic acid, 66 hours; no spontaneous assembly. Here is the method: Assembly was performed at 37° C. in siliconized microfuge tubes. […] For staining of amyloid filaments, 4% uranyl acetate was used and the H2O rinse was omitted. […] Because short filaments were sometimes difficult to distinguish from background debri in digitized images, high concentrations of DTT were routinely used in order to maximize the production of longer filaments.

Series [3] in a line: Critical micellar concentration by phase partitioning of phenylnaphthylamine. The format is physicochemical. The protocol:
All free fatty acids were purchased in the cis conformation and at maximum available purity from Sigma Chemical Company free fatty acids were diluted into tau and amyloid samples from a 200× ethanolic stock, such that the final ethanol concentration in all samples and controls was 0.5%. Values for the critical micellar concentration (CMC) were obtained based on the phase partitioning of […] phenylnaphthylamine (Kovatchev et al., 1981) when free fatty acids were diluted into assembly buffer.
For most experiments, tau proteins were diluted to 2× the desired concentration in buffer A, then 1/2 in borate saline (0.1 M H3BO3, 25 mM Na2B4O7, 75 mM NaCl) supplemented with 20 mM dithiothreitol (DTT) and 2× the required concentration of free fatty acids (final pH ˜8.4). Assembly was performed at 37° C. in siliconized microfuge tubes. For evaluating the dependence of assembly on ionic strength, tau was diluted 1/10 into 111 mM Tris pH 7.2, 11 mM DTT, supplemented to give the indicated final concentrations of NaCl. At 250 mM NaCl, the measured CMC of arachidonic acid in the Tris buffering system was >2 mM.

A further series relates to tau. The series is described as follows: Arachidonic acid stimulated polymerization, all tau preparations examined. The format is biochemical. The settings on record: tau concentrations of 2.5-5 μM. The protocol:
(§1) For most experiments, tau proteins were diluted to 2× the desired concentration in buffer A, then 1/2 in borate saline (0.1 M H3BO3, 25 mM Na2B4O7, 75 mM NaCl) supplemented with 20 mM dithiothreitol (DTT) and 2× the required concentration of free fatty acids (final pH ˜8.4). Assembly was performed at 37° C. in siliconized microfuge tubes. For evaluating the dependence of assembly on ionic strength, tau was diluted 1/10 into 111 mM Tris pH 7.2, 11 mM DTT, supplemented to give the indicated final concentrations of NaCl. At 250 mM NaCl, the measured CMC of arachidonic acid in the Tris buffering system was >2 mM. […] For staining of amyloid filaments, 4% uranyl acetate was used and the H2O rinse was omitted. […] For filament length measurements, random micrographs obtained at a nominal magnification of 15K were digitized and traced using either software from Universal Imaging Corporation or the public domain NIH Image program (for Macintosh; written by W. Rasband at the NIH and available from the Internet by anonymous ftp from zippy.nimh.nih.gov or on floppy disk from NTIS, 5285 Port Royal Rd., Springfield, Va. 22161, part number PB93-504868). […] Because short filaments were sometimes difficult to distinguish from background debri in digitized images, high concentrations of DTT were routinely used in order to maximize the production of longer filaments.

The subject of another series is adult rat MTτ. The series is described as follows: Arachidonic acid dependence of tau assembly, adult rat MTτ. The settings on record: arachidonic acid 10-40 μM. The format is biochemical. The protocol:
as §1

The next series addresses T2, juvenile rat MTτ (Rattus norvegicus, UniProt P19332, DEL587-617).
T2 construct: killed by decapitation at postnatal day 11 (juveniles); from tissue; host or cells: brain microtubules of P11 Sprague-Dawley rats
Nature of the series: Fatty acid dependence of tau assembly, polymer length per field by electron microscopy. The class given is biochemical. Here is the method:
All free fatty acids were purchased in the cis conformation and at maximum available purity from Sigma Chemical Company free fatty acids were diluted into tau and amyloid samples from a 200× ethanolic stock, such that the final ethanol concentration in all samples and controls was 0.5%.
Assembly was performed at 37° C. in siliconized microfuge tubes.
For staining of amyloid filaments, 4% uranyl acetate was used and the H2O rinse was omitted. […] Because short filaments were sometimes difficult to distinguish from background debri in digitized images, high concentrations of DTT were routinely used in order to maximize the production of longer filaments.

T2 sequence (P19332 with tags, fused parts or gaps isoform P19332-6 DEL209-239): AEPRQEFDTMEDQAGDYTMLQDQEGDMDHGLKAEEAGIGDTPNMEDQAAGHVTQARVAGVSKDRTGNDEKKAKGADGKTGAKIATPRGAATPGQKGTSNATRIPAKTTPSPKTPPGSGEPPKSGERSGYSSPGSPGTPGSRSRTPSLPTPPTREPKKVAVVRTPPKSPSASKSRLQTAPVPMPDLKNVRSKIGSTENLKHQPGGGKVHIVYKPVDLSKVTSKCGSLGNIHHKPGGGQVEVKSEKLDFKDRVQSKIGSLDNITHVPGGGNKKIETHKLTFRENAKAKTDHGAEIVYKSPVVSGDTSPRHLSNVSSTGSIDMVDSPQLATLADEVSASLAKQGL
T1 sequence (P10636 1-441 isoform P10636-8): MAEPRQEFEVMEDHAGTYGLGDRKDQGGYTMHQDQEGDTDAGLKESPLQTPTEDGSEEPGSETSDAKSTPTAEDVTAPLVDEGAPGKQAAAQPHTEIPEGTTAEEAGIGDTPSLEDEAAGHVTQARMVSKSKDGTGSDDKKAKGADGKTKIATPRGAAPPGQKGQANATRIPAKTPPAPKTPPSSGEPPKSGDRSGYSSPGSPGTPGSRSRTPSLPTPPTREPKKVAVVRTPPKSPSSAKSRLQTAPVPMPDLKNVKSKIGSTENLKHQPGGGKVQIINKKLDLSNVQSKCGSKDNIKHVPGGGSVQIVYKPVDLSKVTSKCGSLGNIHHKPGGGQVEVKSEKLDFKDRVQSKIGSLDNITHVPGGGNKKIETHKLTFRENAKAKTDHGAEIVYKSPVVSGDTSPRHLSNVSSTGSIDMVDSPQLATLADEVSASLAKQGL

`N[C@@H](CCC(=O)N[C@@H](CS)C(=O)NCC(=O)O)C(=O)O` [glutathione]: the “assembly of microtubule tau (rat)” value in series [1] was “promoted the assembly”.
Take `CCCCCC=CCC=CCC=CCC=CCCCC(=O)O` [5,8,11,14-eicosatetraenoic acid (20:4), 5,8,11,14-eicosatetraenoic acid]: on human recombinant tau, the “filament formation, human recombinant tau” value was “Filaments were observed”. Besides, the “filament formation, tau purified from porcine whole brain” value in series [2] is on record as “Filaments were observed”. The “CMC in the Tris buffering system” value in series [3] (250 mM NaCl, Tris buffering system) is above 2 mM. In series [3] (free fatty acids diluted into assembly buffer), this molecule came in with a CMC of 0.16 mM. The “lowest concentration inducing assembly” value in the series on tau was 10 to 20 µM. Moreover, in the series with adult rat MTτ, the “polymerization of adult rat MTτ” value is reported as “stimulated the polymerization”. Besides, the “Polymer Mass (μm/field)” value on juvenile rat MTτ (50 μM free fatty acid, 72 hours, juvenile rat MTτ, average ± S.E.M. (n = 12)) worked out at 24.51 ± 2.58 μm/field. At juvenile rat MTτ (50 μM free fatty acid, 72 hours, relative to the maximal assembly achieved with arachidonic acid), the “% maximum” value is 100%. The “apparent threshold for stimulation of tau assembly” value at juvenile rat MTτ (juvenile MTτ, longest timepoint tested) is reported as “less than 10 μμM”.
